Source: PubChem BioAssay AID2060340 (Molecular Pharmacology Branch, DTP, NCI, 2025)

Test system: 349418-098-R-PDC spheroids, viability, % test/control
Assay: Anticancer human tumor 349418-098-R-PDC patient-derived lung adenocarcinoma cell line growth inhibition [IpAb]
Conditions: spheroids with HUVEC and MSC; for IC50: curve of first compound; for viability, T/C: stronger effect = lower value
Procedure, shortened: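 Combinations with ipatasertib or abemaciclib were tested on tumour spheroids holding HUVEC (25%) and MSC (15%) alongside 60% malignant cells. Top concentration was at or near clinical Cmax (10 microM if undefined), descending in half-log steps.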

[1] = second compound 0.1 µM, first compound 0.0316 µM
[2] = second compound 0.1 µM, first compound 0.1 µM
[3] = second compound 0.1 µM, first compound 0.316 µM
[4] = second compound 0.1 µM, first compound 1 µM
[5] = second compound 0.1 µM, first compound 3.16 µM
[6] = second compound 0.1 µM, first compound 10 µM
[7] = second compound 0.316 µM, first compound 0.0316 µM
[8] = second compound 0.316 µM, first compound 0.1 µM
[9] = second compound 0.316 µM, first compound 0.316 µM
[10] = second compound 0.316 µM, first compound 1 µM
[11] = second compound 0.316 µM, first compound 3.16 µM
[12] = second compound 0.316 µM, first compound 10 µM
[13] = second compound 1 µM, first compound 0.0316 µM
[14] = second compound 1 µM, first compound 0.1 µM
[15] = second compound 1 µM, first compound 0.316 µM
[16] = second compound 1 µM, first compound 1 µM
[17] = second compound 1 µM, first compound 3.16 µM
[18] = second compound 1 µM, first compound 10 µM
[19] = second compound 3.16 µM, first compound 0.0316 µM
[20] = second compound 3.16 µM, first compound 0.1 µM
[21] = second compound 3.16 µM, first compound 0.316 µM
[22] = second compound 3.16 µM, first compound 1 µM
[23] = second compound 3.16 µM, first compound 3.16 µM
[24] = second compound 3.16 µM, first compound 10 µM
[25] = second compound 10 µM, first compound 0.0316 µM
[26] = second compound 10 µM, first compound 0.1 µM
[27] = second compound 10 µM, first compound 0.316 µM
[28] = second compound 10 µM, first compound 1 µM
[29] = second compound 10 µM, first compound 3.16 µM
[30] = second compound 10 µM, first compound 10 µM
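Also: spheroids exposed to compounds for 7 days.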

CC1(C)CCC(CN2CCN(c3ccc(C(=O)NS(=O)(=O)c4ccc(NCC5CCOCC5)c([N+](=O)[O-])c4)c(Oc4cnc5[nH]ccc5c4)c3)CC2)=C(c2ccc(Cl)cc2)C1 + CC(C)NCC(C(=O)N1CCN(c2ncnc3c2C(C)CC3O)CC1)c1ccc(Cl)cc1
IC50 (second compound 0.1 µM): 3820 nM
IC50 (second compound 0.316 µM): 326 nM
IC50 (second compound 1 µM): < 31.6 nM
IC50 (second compound 3.16 µM): < 31.6 nM
IC50 (second compound 10 µM): < 31.6 nM
viability, T/C [1]: 99.2%
viability, T/C [2]: 96.5%
viability, T/C [3]: 97.8%
viability, T/C [4]: 78%
viability, T/C [5]: 60.6%
viability, T/C [6]: 7.06%
viability, T/C [7]: 64.7%
viability, T/C [8]: 49.4%
viability, T/C [9]: 50.6%
viability, T/C [10]: 40.1%
viability, T/C [11]: 31.4%
viability, T/C [12]: 5.53%
viability, T/C [13]: 30%
viability, T/C [14]: 29.5%
viability, T/C [15]: 27.3%
viability, T/C [16]: 20.4%
viability, T/C [17]: 16%
viability, T/C [18]: 4.15%
viability, T/C [19]: 13.3%
viability, T/C [20]: 13%
viability, T/C [21]: 11.5%
viability, T/C [22]: 12.3%
viability, T/C [23]: 8.4%
viability, T/C [24]: 3.13%
viability, T/C [25]: 8.33%
viability, T/C [26]: 8.41%
viability, T/C [27]: 8.13%
viability, T/C [28]: 7.39%
viability, T/C [29]: 5.52%
viability, T/C [30]: 2.19%

COc1c(OCCCN2CCOCC2)ccc2c3n(c(=NC(=O)c4cnc(N)nc4)nc12)CCN3 + CC(C)NCC(C(=O)N1CCN(c2ncnc3c2C(C)CC3O)CC1)c1ccc(Cl)cc1
IC50 (second compound 0.1 µM): 3.97 nM
IC50 (second compound 0.316 µM): < 3.16 nM
IC50 (second compound 1 µM): < 3.16 nM
IC50 (second compound 3.16 µM): < 3.16 nM
IC50 (second compound 10 µM): < 3.16 nM
viability, T/C (second compound 0.1 µM, first compound 0.00316 µM): 55.1%
viability, T/C (second compound 0.1 µM, first compound 0.01 µM): 29.2%
viability, T/C [1]: 9.62%
viability, T/C [2]: 5.79%
viability, T/C [3]: 5.45%
viability, T/C [4]: 5.99%
viability, T/C (second compound 0.316 µM, first compound 0.00316 µM): 35%
viability, T/C (second compound 0.316 µM, first compound 0.01 µM): 21.2%
viability, T/C [7]: 8.11%
viability, T/C [8]: 6.04%
viability, T/C [9]: 5.28%
viability, T/C [10]: 5.13%
viability, T/C (second compound 1 µM, first compound 0.00316 µM): 16.6%
viability, T/C (second compound 1 µM, first compound 0.01 µM): 9.17%
viability, T/C [13]: 7.4%
viability, T/C [14]: 5.13%
viability, T/C [15]: 5.24%
viability, T/C [16]: 4.6%
viability, T/C (second compound 3.16 µM, first compound 0.00316 µM): 9.24%
viability, T/C (second compound 3.16 µM, first compound 0.01 µM): 8.35%
viability, T/C [19]: 6.17%
viability, T/C [20]: 4.91%
viability, T/C [21]: 4.85%
viability, T/C [22]: 4.78%
viability, T/C (second compound 10 µM, first compound 0.00316 µM): 6.46%
viability, T/C (second compound 10 µM, first compound 0.01 µM): 6.12%
viability, T/C [25]: 5.32%
viability, T/C [26]: 4.15%
viability, T/C [27]: 4.39%
viability, T/C [28]: 4.49%

CC(C)(C)c1cnc(CSc2cnc(NC(=O)C3CCNCC3)s2)o1 + CCN1CCN(Cc2ccc(Nc3ncc(F)c(-c4cc(F)c5nc(C)n(C(C)C)c5c4)n3)nc2)CC1
IC50 (second compound 0.01 µM): 24.1 nM
IC50 (second compound 0.0316 µM): < 9.49 nM
IC50 (second compound 0.1 µM): < 9.49 nM
IC50 (second compound 0.316 µM): < 9.49 nM
IC50 (second compound 1 µM): < 9.49 nM
viability, T/C (second compound 0.01 µM, first compound 0.00949 µM): 69.8%
viability, T/C (second compound 0.01 µM, first compound 0.03 µM): 45.4%
viability, T/C (second compound 0.01 µM, first compound 0.0949 µM): 8.31%
viability, T/C (second compound 0.01 µM, first compound 0.3 µM): 2.5%
viability, T/C (second compound 0.01 µM, first compound 0.949 µM): 2.72%
viability, T/C (second compound 0.01 µM, first compound 3 µM): 2.34%
viability, T/C (second compound 0.0316 µM, first compound 0.00949 µM): 47.7%
viability, T/C (second compound 0.0316 µM, first compound 0.03 µM): 36.2%
viability, T/C (second compound 0.0316 µM, first compound 0.0949 µM): 6.02%
viability, T/C (second compound 0.0316 µM, first compound 0.3 µM): 2.71%
viability, T/C (second compound 0.0316 µM, first compound 0.949 µM): 2.93%
viability, T/C (second compound 0.0316 µM, first compound 3 µM): 2.49%
viability, T/C (second compound 0.1 µM, first compound 0.00949 µM): 24.8%
viability, T/C (second compound 0.1 µM, first compound 0.03 µM): 17.7%
viability, T/C (second compound 0.1 µM, first compound 0.0949 µM): 4.01%
viability, T/C (second compound 0.1 µM, first compound 0.3 µM): 2.44%
viability, T/C (second compound 0.1 µM, first compound 0.949 µM): 3%
viability, T/C (second compound 0.1 µM, first compound 3 µM): 2.01%
viability, T/C (second compound 0.316 µM, first compound 0.00949 µM): 14.4%
viability, T/C (second compound 0.316 µM, first compound 0.03 µM): 13.7%
viability, T/C (second compound 0.316 µM, first compound 0.0949 µM): 1.91%
viability, T/C (second compound 0.316 µM, first compound 0.3 µM): 2.83%
viability, T/C (second compound 0.316 µM, first compound 0.949 µM): 3.36%
viability, T/C (second compound 0.316 µM, first compound 3 µM): 2.48%
viability, T/C (second compound 1 µM, first compound 0.00949 µM): 13.9%
viability, T/C (second compound 1 µM, first compound 0.03 µM): 9.5%
viability, T/C (second compound 1 µM, first compound 0.0949 µM): 2.29%
viability, T/C (second compound 1 µM, first compound 0.3 µM): 4.08%
viability, T/C (second compound 1 µM, first compound 0.949 µM): 4.05%
viability, T/C (second compound 1 µM, first compound 3 µM): 3.25%

Cc1nc(NC(=O)N2CCCC2C(N)=O)sc1-c1ccnc(C(C)(C)C(F)(F)F)c1 (stereo not given) + CC(C)NCC(C(=O)N1CCN(c2ncnc3c2C(C)CC3O)CC1)c1ccc(Cl)cc1
IC50 (second compound 0.1 µM): 117 nM
IC50 (second compound 0.316 µM): < 31.6 nM
IC50 (second compound 1 µM): < 31.6 nM
IC50 (second compound 3.16 µM): < 31.6 nM
IC50 (second compound 10 µM): < 31.6 nM
viability, T/C [1]: 75.5%
viability, T/C [2]: 52.5%
viability, T/C [3]: 31.8%
viability, T/C [4]: 16.8%
viability, T/C [5]: 14.2%
viability, T/C [6]: 12.7%
viability, T/C [7]: 40.3%
viability, T/C [8]: 33.8%
viability, T/C [9]: 24.9%
viability, T/C [10]: 12.6%
viability, T/C [11]: 13.7%
viability, T/C [12]: 9.57%
viability, T/C [13]: 21.9%
viability, T/C [14]: 16.2%
viability, T/C [15]: 13.6%
viability, T/C [16]: 11%
viability, T/C [17]: 10.2%
viability, T/C [18]: 8.68%
viability, T/C [19]: 11.4%
viability, T/C [20]: 9.53%
viability, T/C [21]: 9.54%
viability, T/C [22]: 7.39%
viability, T/C [23]: 7.95%
viability, T/C [24]: 7.62%
viability, T/C [25]: 8.29%
viability, T/C [26]: 7.93%
viability, T/C [27]: 7.48%
viability, T/C [28]: 6.51%
viability, T/C [29]: 6.55%
viability, T/C [30]: 5.85%
